Results published in patent US20120021988A1, “METHODS FOR TREATING IMMUNE THROMBOCYTOPENIA” (priority 2007, published 2012).

Columns and labels:
FcγIIIa = experiment: FcγR reverse ELISA: inhibition of PAP immune complex binding (Table 2); details: PAP/peptide mixture on FcγR coated plates; positive control 1.588
From the text: (§1) For this reason, a “reverse ELISA” technique has been used to assess binding of the Fc region to ligands that bind to immune complexed IgG Fc. In a reverse ELISA, the enzyme (e.g., HRP) is not covalently conjugated to the Fc portion of the secondary antibody. Rather, a preformed immune complex of peroxidase-rabbit (or mouse) anti-peroxidase IgG (“PAP” complex) is used. […] In the reverse ELISA system, an Fc CH2-CH3 cleft binding ligand (e.g., purified human C1q) was bound to microwell plates. In the absence of competitor, PAP complexes bound to the immobilized ligand and the reaction between HRP and its substrate produces a signal. This signal was reduced by polypeptides and compounds that inhibited PAP binding to the immobilized ligand.
(§2) Once the reverse ELISA protocol was established using the C1q assay, the assay was redesigned using FcγIIa, FcγIIb and FcγIII in place of C1q. Highly purified FcγIIa, FcγIIb and FcγIII (R&D Systems, Minneapolis, Minn.) were immunoadsorbed onto plastic microwells. After optimizing the FcγR reverse ELISA system, simple competitive inhibition experiments using polypeptides provided herein were conducted to investigate their ability to inhibit binding of immune complexes to purified FcγR.
(§3) Falcon microtiter plates were coated with 1:10 dilutions of highly purified FcγIIa, FcγIIb and FcγIII and incubated for 24 hours. The plates were washed and then blocked with 5×BSA blocking solution (Alpha Diagnostic International, San Antonio, Tex.) for 24 hours. PAP immune complexes were formed as described in Example 1. PAP (100 μl) were pre-incubated with 100 μl of peptide for one hour. PAP/peptide mixtures were added to the FcγR coated plates and incubated for one hour. After washing, plates were incubated with ABTS substrate (Quidel Corp.) for 15 minutes and read at 405 nm.

FcγIIa (R131 allele) = experiment: as above; details: PAP/peptide mixture on FcγR coated plates; positive control 1.599
From the text: as §1, §2, §3

FcγIIb = experiment: as above; details: PAP/peptide mixture on FcγR coated plates; positive control 1.394
From the text: as §1, §2, §3

Fcγ1 = experiment: Repeated FcγR reverse ELISA with SEQ ID NO:20 (Table 3); type: binding
FCγIIIb (NA2) = experiment: as above; type: binding
Procedure: (§4) Experiments with SEQ ID NO:20 were repeated. Costar microtiter plates were coated with 1:10 dilutions of highly purified FcγIIa (His 131 allele aka […]), FcγIIb and FcγIIIb and incubated for 24 hours. The plates were washed and then blocked with 10 mg/ml BSA blocking solution for 24 hours. PAP immune complexes were formed as described in Example 2. PAP (100 μl) were pre-incubated with 100 μl of peptide for one hour. PAP/peptide mixtures were added to the FcγR coated plates and incubated for one hour. After washing, plates were incubated with ABTS substrate for 15 minutes and read at 405 nm.

FCγIIb/c = experiment: as above; type: binding
Procedure: as §4

FcγIIa (His 131 allele) = experiment: as above; type: binding; details: H131 allele
Procedure: as §4

[1] = test system: Fc receptor (FcγI, FcγIIa/FcγIIb, and FcγIII); experiment: FcγR reverse ELISA, overall statements on FcR binding to PAP immune complexes
Procedure: as §2, §3
Experiments with SEQ ID NO:20 were repeated. Costar microtiter plates were coated with 1:10 dilutions of highly purified FcγIIa (His 131 allele aka […]), FcγIIb and FcγIIIb and incubated for 24 hours. […] After washing, plates were incubated with ABTS substrate for 15 minutes and read at 405 nm.

## Ala-Pro-Pro-Asp-Cys-Ala-Trp-His-Leu-Gly-Glu-Leu-Val-Trp-Cys-Thr (APPDCAWHLGELVWCT) [SEQ ID NO:20]
FcγIIIa
  OD405 FcγIIIa: 0.670
FcγIIa (R131 allele)
  OD405 FcγIIa (R131 allele): 0.509
FcγIIb
  OD405 FcγIIb: 0.496
Fcγ1; repeat experiment, positive control 2.333
  Fcγ1 (read at 405 nm): 0.264
Fcγ1; versus positive control
  % inhibition of IC binding, Fcγ1: 89%
FCγIIIb (NA2); repeat experiment, positive control 3.060
  FCγIIIb (NA2) (read at 405 nm): 0.266
FCγIIIb (NA2); versus positive control
  % inhibition of IC binding, FCγIIIb (NA2): 91%
FCγIIb/c; repeat experiment, positive control 2.218
  FCγIIb/c (read at 405 nm): 0.266
FCγIIb/c; versus positive control
  % inhibition of IC binding, FCγIIb/c: 88%
FcγIIa (His 131 allele); repeat experiment, positive control 3.509
  FCγIIa* (read at 405 nm): 0.209
FcγIIa (His 131 allele); versus positive control
  % inhibition of IC binding, FCγIIa*: 94%
[1]; summary of Table 2: FcγIIa, FcγIIb, FcγIIIa
  Overall inhibition of FcR binding to PAP (ranking in words): greatest overall inhibition of FcR binding to PAP
[1]; summary of Table 3
  Inhibition of Fc receptor binding to soluble PAP immune complexes: inhibited binding of all three major classes of Fc receptor
